Patent US20190125735A1, “INHIBITION OF P38 MAPK FOR THE TREATMENT OF CANCER” (Board of Regents, The University of Texas System, priority 2015, published 2019)

Legend:
BCR-ABL+ mouse ALL cells = conditions: MSC co-culture
Procedure: Leukemic cell apoptosis was analyzed by flow cytometry using BD LSRFortessa or Accuri C6 flow cytometer (BD Biosciences) after the cells were stained with Annexin V (BD Biosciences, San Jose, Calif.). Data were analyzed by FlowJo software (Ashland, Oreg.).

DU145 cells [1] = assay: Tumorsphere assay, DU145 cells; format: cell-based, human; conditions: DU145, SB203580 5 μM, 7 days
Procedure: Cell lines: Authenticated LNCaP, DU145, and PC3 cells were procured from ATCC and cultured in RPMI with 10% fetal bovine serum (FBS) with penicillin/streptomycin. Cells overexpressing EMT transcription factors and shRNA were also cultured in the same media. HEK293T cells were cultured in DMEM with 10% FBS and penicillin/streptomycin. All cell lines used for this study were recently confirmed negative for mycoplasma contamination.
(§1) Immunoblotting, Immunofluorescence, RTPCR, wound healing- and tumorsphere assays were performed as previously described (Sarkar et al., 2015). Cell viability (MTS) was assessed using the CellTiter96 Aqueous One-Solution Cell Proliferation Assay kit (Promega).

4T1 cells = assay: 4T1 orthotopic mouse mammary carcinoma model (primary tumor, lung metastasis, CTCs); format: in vivo
Excerpt: In order to investigate this, the 4T1 mouse mammary carcinoma model, which recapitulates many of the characteristics of human breast cancer, was employed.
Tumor progression was monitored weekly using caliper measurements and bioluminescence. Starting week 3 post-implantation, 5 mice per group were sacrificed and surgically excised the primary tumors and lungs were surgically excised. […] This observation was corroborated by caliper measurements (FIG. 15C) and the bioluminescent signal emitted by these tumors (FIGS. 20A, 20B). Indeed, there were no significant differences in the latency and growth rates of the vehicle- and SB203580-treated primary tumors during this timecourse (FIGS. 15C and 20B).
NOD/SCID and BALB/c mice were purchased from the Jackson Laboratory (Bar Harbor, Me., USA). To examine primary tumor formation and spontaneous metastasis, luciferase-labeled 4T1 cells (1×10^4 or 5×10^4) were injected into the inguinal mammary fat-pad of BALB/c mice. For experimental metastasis studies, 0.5×10^6 luciferase-labeled MDA-MB-231 cells were injected into NOD/SCID mice via the tail vein. […] Mice were assessed weekly for tumor growth and metastasis via subcutaneous injection of D-Luciferin (150 mg/kg; Caliper LifeSciences, Hopkinton, Mass., USA) and bioluminescent imaging (IVIS imaging system 200 series; Xenogen Corporation, PerkinElmer, Waltham, Mass., USA). Primary tumor size was measured with a caliper as the product of two perpendicular diameters (mm^2). At the indicated timepoints, primary tumors and lungs were surgically excised, imaged and processed for histology.
Mice were orthotopically injected with red fluorescent protein (RFP)/luciferase-labeled 4T1 cells. Starting week 3 post-injection, blood was collected, via cardiac puncture, in EDTA-coated tubes and treated with Ammonium-Chloride-Potassium lysing buffer (Invitrogen). Cells were cultured in RPMI-1640 medium containing 10% fetal bovine serum and penicillin/streptomycin. RFP-positive colonies were counted after 3 days.

ZEB1 = ZEB1 mRNA and protein levels (qRT-PCR, immunoblotting); format: cell-based, human
Excerpt: First, the elevated levels of FOXC2 and ZEB1 transcripts were confirmed in HMLER-FOXC2 cells versus HMLER-vector cells by qRT-PCR (FIG. 19A). […] Accordingly, shRNA-mediated suppression of FOXC2 in a panel of cell lines yielded a >50-fold decrease in ZEB1 mRNA (FIG. 19E) and a >80% reduction in ZEB1 protein levels (FIG. 19F). […] Conversely, a >50-fold increase as found in miR-200b, and a >1000-fold increase in miR-200c, following FOXC2 knockdown compared to control shRNA-transduced counterparts (FIG. 19H). To ascertain whether FOXC2 directly regulates miR-200 or ZEB1 expression, the promoter regions of both miR-200 clusters on chromosomes 1 and 12 as well as the ZEB1 promoter were analyzed, and a conserved FOXC2-binding element within the ZEB1 promoter was identified. […] Furthermore, in support of the notion that p38-mediated phosphorylation of FOXC2 regulates ZEB1 expression, elevated ZEB1 protein levels were only detected in HMLER-FOXC2 and HMLER-FOXC2(S367E) cells (FIG. 19L, lanes 2 and 3), but not in HMLER-FOXC2(S367A) cells (FIG. 19L, lane 4).
Immunoblotting and immunofluorescence (Mani et al., 2008) were performed as previously described. Primary antibodies were as follows: β-actin (Sigma, St Louis, Mo., USA; A3853), mouse anti-human FOXC2 (Dr. Naoyuki Miura, Hamamatsu University School of Medicine, Japan), goat polyclonal anti-FOXC2 (Santa Cruz Biotechnology, Dallas, Tex., USA; sc-21397), p-p38 (Cell Signaling, Danvers, Mass., USA; 4511), p38 (Cell Signaling; 9211), E-cadherin (BD Biosciences, San Jose, Calif., USA; 61081), fibronectin (BD Biosciences; 610077), vimentin (Novus Biologicals, Littleton, Colo., USA; NB200-623), ZEB1 (Novus Biologicals; NBP1-05987), and HA (Covance, Princeton, N.J., USA; MMS-101P).
(§2) qRT-PCR was performed using SYBR Green (Applied Biosystems, Waltham, Mass., USA) for mRNAs and Taqman (Applied Biosystems) for microRNAs as described previously (Hollier et al., 2013).

[2] = tested on: HMLE-Snail, HMLE-Twist, MDA-MB-231 and SUM159 cells; assay: Sphere formation of mesenchymal mammary cells; format: cell-based, human; conditions: relative to vehicle-treated cells
Procedure: It was next ascertained whether p38 inhibition compromises the maintenance of the established EMT phenotype.
Quantification of invadopodia (Eckert et al., 2011), scratch/wound-healing assays (Sarkar et al., 2015) fluorescence-activated cell sorting (FACS), and sphere-formation assays (Mani et al., 2008) were conducted as described previously.

FOXC2 = FOXC2 transcript levels by qRT-PCR; format: cell-based, human; conditions: treated vs vehicle
Procedure: as §2

DU145 cells [3] = assay: Wound healing assay, DU145 cells; format: cell-based, human; conditions: DU145, 5 μM, 7 days
Procedure: as §1

Q: For `C[S+]([O-])c1ccc(-c2nc(-c3ccc(F)cc3)c(-c3ccncc3)[nH]2)cc1` (stereo not shown) [SB203580, 4-(4-Fluorophenyl)-2-(4-methylsulfinylphenyl)-5-(4-pyridyl) 1H-imidazole], which “Apoptosis of leukemic cells” value (BCR-ABL+ mouse ALL cells) is on record?
A: did not affect proliferation or apoptosis of leukemic cells

Q: What about the Tumorsphere formation (DU145 cells [1]) of the same compound?
A: significant reduction

Q: And the Primary tumor size (4T1 cells; 4T1 cells, daily treatment, weeks 3-6)?
A: primary tumors of a similar size relative to vehicle-treated counterparts

Q: And the “Lung metastases (bioluminescent signal)” value (4T1 cells; 4T1 cells, systemic daily treatment)?
A: strikingly fewer lung metastases

Q: What about the “Metastatic burden (lung)” value (4T1 cells; mice harboring 4T1-FOXC2(S367E) cells) of the same compound?
A: failed to significantly reduce the metastatic burden

Q: And the “Reduction of incidence of lung metastases compared to vehicle” value (4T1 cells; mice harboring 4T1-vector cells, daily SB203580)?
A: > 20 fold

Q: And the Primary tumor growth (4T1 cells; mice harboring 4T1-vector or 4T1-FOXC2(S367E) cells)?
A: no significant differences in primary tumor growth

Q: What about the “Microvessel density of primary tumors (CD31 immunohistochemistry)” value (4T1 cells; vs vehicle-treated) of the same compound?
A: did not reveal significant differences

Q: What about the “CTCs recovered from blood” value (4T1 cells; week 6 post-implantation) of the same compound?
A: very few CTCs were recovered

Q: What about the “CTCs recovered from blood” value (4T1 cells; weeks 3-5 post-implantation) of the same compound?
A: no CTCs were recovered from SB203580-treated mice until week 5

Q: And the ZEB1 protein levels (ZEB1; HMLER-FOXC2(S367E) cells)?
A: remained relatively high

Q: And the ZEB1 protein levels (ZEB1; HMLER-FOXC2 cells)?
A: decreased

Q: What about the “Reduction of ZEB1 mRNA and protein levels compared to vehicle” value (ZEB1; SB203580 treatment) of the same compound?
A: > 60 fold

Q: And the Sphere-formation [2]?
A: substantially reduced sphere-formation

Q: What about the FOXC2 transcript levels (FOXC2) of the same compound?
A: neither SB203580 nor p38 shRNA had a discernible effect on FOXC2 transcript levels

Q: And the Migratory potential (DU145 cells [3])?
A: significant reduction in migratory potential
